The text below walks through data of patent US20060035995A1, “Photosensitive amine generator, photocurable composition and photoreactive adhesive composition” (Sekisui Chemical Co., Ltd., priority 2000, published 2006).

For data set [1] the following is noted: radiation at 254 nm; cited from earlier work.
Data set [2] is described as follows: Compatibility with the urethane prepolymer (1). The data set is classed as physicochemical. Conditions: 1 part by weight of compound in 100 parts by weight of urethane prepolymer (1). An excerpt:
(§1) Evaluation was made by three ranks, i.e., by 0 if the composition dissolved completely and provided a clear mixture, by ▴ if it almost dissolved but provided a slightly cloudy mixture and by X if it little dissolved.

Data set [3] can be described thus: Solubility in tetrahydrofuran. It is filed as physicochemical. As to conditions: 1 part by weight of compound in 100 parts by weight of tetrahydrofuran.
Description: as §1

Data set [4] can be described thus: Compatibility with the epoxy resin (EPICOAT 828). The data set is classed as physicochemical. Conditions: 1 part by weight of compound in 100 parts by weight of epoxy resin (EPICOAT 828).
Description: as §1

Regarding `NC(=O)OCc1ccccc1[N+](=O)[O-]` [o-nitrobenzyl carbamate], in data set [1], the quantum yield result is given as “about 0.13”. Consider `C=C(C)C(=O)OCCNC(=O)ON=C(C)c1ccccc1` [Example 4], for which the “Solubility Prepolymer” value in data set [2] was “◯”. In data set [3], the “Solubility THF” value is on record as “◯”. Also, in data set [4], the “Solubility Epoxy Resin” value was “◯”.

As for `CC(=NOC(=O)NCCCCCCNC(=O)ON=C(C)c1ccccc1)c1ccccc1` [Example 1], in data set [3], the “Solubility THF” value is reported as “◯”.
